# Laboratory results from patent publication US10654834B2 (Venenum Biodesign, LLC, priority 2016, dated 2020).
# pEC50: −log10 of the molar value. Structures can show the parent of a compound that is named as a salt.
# Columns and labels:
# [1] = target: T1, human TGR5 receptor (Homo sapiens, UniProt Q8TDU6); assay: Human TGR5 cAMP production assay (hTGR5-CHO cells, DiscoveRx cAMP XS+ kit); type: cell-based; conditions: luminescent cAMP assay, read-out: Human TGR5 Lum. cAMP Activity (EC50)
# T1 construct: host or cells: CHO-K1 (hTGR5-CHO)
# T1 sequence (Q8TDU6 1-330): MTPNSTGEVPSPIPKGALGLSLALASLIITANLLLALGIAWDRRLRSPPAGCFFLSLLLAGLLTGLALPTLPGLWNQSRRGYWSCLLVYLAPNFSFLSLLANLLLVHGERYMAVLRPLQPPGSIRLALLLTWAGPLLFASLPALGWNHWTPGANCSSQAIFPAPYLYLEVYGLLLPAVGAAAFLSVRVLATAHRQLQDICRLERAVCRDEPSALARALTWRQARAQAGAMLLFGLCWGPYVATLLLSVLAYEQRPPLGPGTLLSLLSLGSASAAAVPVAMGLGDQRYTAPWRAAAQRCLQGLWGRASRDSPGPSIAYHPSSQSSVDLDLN
# Protocol: Human TGR5 cAMP Production Assay
# Compounds of the present invention were evaluated for their ability to induce cAMP production using CHO-K1 cells overexpressing the human TGR5 receptor.
# CHO-K1 cells stably expressing human TGR5 receptor (accession number NM_001077194.1) (hTGR5) (i.e., hTGR5-CHO cells) were purchased from DiscoveRx Corporation (Fremont, Calif.). hTGR5-CHO cells were grown in Ham's F-12 media supplemented with 10% Fetal Bovine Serum, 1% Penicillin-Streptomycin, 2 mM L-Alanine L-Glutamine (Glutamax), and 800 μg/mL Geneticin selection. The cAMP production assay was performed using DiscoveRx's cAMP XS+ kit (Catalog No. 90-0075XL) following the manufacturer's recommended protocol. Briefly, hTGR5-CHO cells were harvested using non-enzymatic cell dissociation buffer (Sigma-Aldrich, St. Louis, Mo.) and 1×10^6 cells were combined in Phosphate-Buffered Saline (PBS) to a final volume of 496 μL to which 4 μL of 125 mM IBMX (Sigma-Aldrich, St. Louis, Mo.) was added. 500 μL of cAMP antibody solution was added to the harvested cells and incubated at room temperature for 20 min.
# Test compounds were serially diluted (half-log dilutions) in DMSO and then further diluted 1:50 in PBS, 10 mM HEPES buffer. 2 μL of serially diluted compound was added to a 384-well low volume plate (Greiner; cat #784075) and centrifuged briefly. 2 μl of the cell/cAMP antibody mixture was then added to each compound-containing well and allowed to incubate at room temperature for one hour. Following incubation, the XS+ kits' ED/Lysis/CL Substrate Working Solution was prepared following the manufacturer's recommended protocol and 4 μL was added to each well of the plate. The plate was then incubated for one hour at room temperature. Following incubation, 4 μL of Enzyme Acceptor reagent was added to the plate and allowed to incubate overnight at room temperature. Luminescent signal was then detected using the Viewlux instrument (Perkin-Elmer, Waltham, Mass.).
# Human and Mouse TGR5 cAMP
# (§1) In Table 52, EC50 values for both human and mouse cells were determined according to the TGR5 cAMP assays described above. […]
# [2] = target: T2, mouse TGR5 receptor (Mus musculus, UniProt Q80SS6); assay: Mouse TGR5 HTRF cAMP production assay (HEK293-EBNA cells, Cisbio cAMP HiRange kit); type: cell-based; conditions: HEK293-EBNA cells overexpressing mouse TGR5, HTRF cAMP assay
# T2 construct: host or cells: HEK293-EBNA (293 c18, ATCC CRL10852)
# T2 sequence (Q80SS6 1-329): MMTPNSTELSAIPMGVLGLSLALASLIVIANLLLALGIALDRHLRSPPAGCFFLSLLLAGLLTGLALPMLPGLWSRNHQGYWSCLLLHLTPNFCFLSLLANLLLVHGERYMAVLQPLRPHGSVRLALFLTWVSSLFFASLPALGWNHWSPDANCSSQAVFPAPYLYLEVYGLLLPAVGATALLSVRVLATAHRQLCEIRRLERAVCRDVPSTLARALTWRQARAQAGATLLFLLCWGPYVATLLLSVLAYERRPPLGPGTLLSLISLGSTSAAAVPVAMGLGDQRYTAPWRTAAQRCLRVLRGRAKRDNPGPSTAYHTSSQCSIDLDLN
# Protocol: Mouse TGR5 cAMP Production Assay
# Compounds of the present invention were evaluated for their ability to induce cAMP production in HEK-EBNA cells overexpressing the mouse TGR5 receptor. Human embryonic kidney cells (HEK293-EBNA) stably expressing mouse TGR5 receptor were established using the following procedure. Specifically, a commercially obtained gene encoding mouse TGR5 (accession number BC116914) from Thermo Scientific (Waltham, Mass.) was cloned into an episomal expression vector. The resulting expression plasmid was then transfected into 293 c18 (ATCC® CRL10852™) cells, which express the Epstein-Barr virus nuclear antigen EBNA1 and can support the replication of episomal vectors. Selection for the plasmid was maintained with Hygromycin B. Cells were cultured and maintained in DMEM (Sigma; cat #6429) supplemented with 10% Fetal Bovine Serum, 1% penicillin/streptomycin, 2 mM L-alanine L-glutamine (GlutaMax), and 250 μg/mL Hygromycin.
# We developed two cAMP production assays.
# (ii) HTRF cAMP Production Assay
# In this second cAMP production assay, the cAMP production was measured in 384-well low volume plates (Greiner; cat #784075) using the Cisbio™ cAMP HiRange HTRF Assay Kit (CisBio) according to the manufacturer's protocol.
# Briefly, compounds were initially diluted in 100% DMSO (12-point serial dilution by half logs) in a 96-well plate and then were further diluted 1:50 in PBS containing 10 mM HEPES. 5 μL were transferred to the 384-well assay plate in duplicate. HEK293-EBNA cells stably overexpressing mouse TGR5 were harvested using non-enzymatic cell dissociation buffer (Sigma), spun down, then resuspended in serum-free DMEM with 500 μM IBMX at a density of 500,000 cells/mL. 5 μL of cell suspension was transferred to each well of the 384-well assay plate already containing compound. The plate was covered and incubated at room temperature for 1 hour. The d2-cAMP and anti-cAMP Ab-cryptate stock solutions were prepared as per kit instructions. Then 5 μL of each conjugate (d2 and cryptate) were added to each well of the assay plate. The plate was covered and incubated at room temperature for one (1) hour. The plate was read on an Envision™ plate reader (PerkinElmer).
# as §1
pEC50 [1],pEC50 [2],SMILES
6.00 to 7.00,> 7.00,"N#Cc1ccc(CCNC(=O)[C@@H]2CCCN2c2cc(N3CCC(CCCC(=O)NCCNC(=O)c4cc(NC[C@H](O)[C@@H](O)[C@H](O)[C@H](O)CO)ncn4)CC3)nc(C(F)(F)F)n2)cc1 [Compound 100, N-(2-(4-(1-(6-((S)-2-((4-cyanophenethyl)carbamoyl)pyrrolidin-1-yl)-2-(trifluoromethyl)pyrimidin-4-yl)piperidin-4-yl)butanamido)ethyl)-6-(((2S,3R,4R,5R)-2,3,4,5,6-pentahydroxyhexyl)amino)-pyrimidine-4-carboxamide]"
6.00 to 7.00,> 7.00,"O=C(CCC1CCN(c2cc(N3CC[C@H]3C(=O)NCCc3ccc(C(F)(F)F)cc3)nc(C(F)(F)F)n2)CC1)NCCS(=O)(=O)O [Compound 254, (S)-2-(3-(1-(2-(trifluoromethyl)-6-(2-((4-(trifluoromethyl)-phenethyl)carbamoyl)azetidin-1-yl)pyrimidin-4-yl)piperidin-4-yl)propanamido)ethanesulfonic acid]"
> 7.00,> 7.00,"O=C(CS(=O)(=O)O)NCCC1CCN(c2cc(N3CC[C@H]3C(=O)NCCc3ccc(C(F)(F)F)cc3)nc(C(F)(F)F)n2)CC1 [Compound 279, (S)-2-oxo-2-((2-(1-(2-(trifluoromethyl)-6-(2-((4-(trifluoromethyl)phenethyl)carbamoyl)azetidin-1-yl)pyrimidin-4-yl)piperidin-4-yl)ethyl)amino)-ethanesulfonic acid]"
6.00 to 7.00,> 7.00,"N#Cc1ccc(CCNC(=O)[C@@H]2CCCN(c3cc(N4CCN(CCn5ccnc5)CC4)nc(C(F)(F)F)n3)C2)cc1 [Compound 318, (R)-1-(6-(4-(2-(1H-imidazol-1-yl)ethyl)piperazin-1-y1)-2-(trifluoromethyl)pyrimidin-4-yl)-N-(4-cyanophenethyl)piperidine-3-carboxamide]"
> 7.00,> 7.00,"N#Cc1ccc(CCNC(=O)[C@@H]2CCCN2c2cc(N3CCC(CCCC(=O)NCCNC(=O)CS(=O)(=O)O)CC3)nc(C(F)(F)F)n2)cc1 [Compound 124, (S)-2-((2-(4-(1-(6-(2-((4-cyanophenethyl)carbamoyl)pyrrolidin-1-yl)-2-(trifluoromethyl)pyrimidin-4-yl)piperidin-4-yl)butanamido)-ethyl)amino)-2-oxoethanesulfonic acid]"
4.52 to 6.00,6.00 to 7.00,"N[C@@H]1C[C@@H](C(=O)NCCc2ccc(C(F)(F)F)cc2)N(c2cc(N3CCC(CCNC(=O)NCCC(=O)O)CC3)nc(C(F)(F)F)n2)C1 [Compound 375, 3-(3-(2-(1-(6-((2S,4R)-4-amino-2-((4-(trifluoromethyl)phenethyl)carbamoyl)pyrrolidin-1-yl)-2-(trifluoromethyl)pyrimidin-4-yl)piperidin-4-yl)ethyl)ureido)propanoic acid]"
> 7.00,> 7.00,"N#Cc1ccc(CCNC(=O)[C@@H]2CCN2c2cc(N3CCC(CCCC(=O)N[C@@H](CCCNC(=N)N)C(=O)O)CC3)nc(C(F)(F)F)n2)cc1 [Compound 251, (S)-2-(4-(1-(6-((S)-2-((4-cyanophenethyl)carbamoyl)azetidin-1-yl)-2-(trifluoromethyl)pyrimidin-4-yl)piperidin-4-yl)butanamido)-5-guanidinopentanoic acid]"

# The remaining lines, values behind:
SMILES,pEC50 [1],pEC50 [2]
"COc1cc(C(F)(F)F)ccc1CCNC(=O)[C@@H]1CCN1c1cc(N2CCC(CO)CC2)nc(C(F)(F)F)n1 [Compound 237, (S)-1-(6-(4-(hydroxymethyl)piperidin-1-yl)-2-(trifluoromethyl)pyrimidin-4-yl)-N-(2-methoxy-4-(trifluoromethyl)phenethyl)azetidine-2-carboxamide]",> 7.00,> 7.00
"CC1(CO)CCN(C(=O)NCCC2CCN(c3cc(N4CCC[C@H]4C(=O)NCCc4ccc(C#N)cc4)nc(C(F)(F)F)n3)CC2)CC1 [Compound 84, (S)-N-(2-(1-(6-(2-((4-cyanophenethyl)carbamoyl)pyrrolidin-1-yl)-2-(trifluoromethyl)pyrimidin-4-yl)piperidin-4-yl)ethyl)-4-(hydroxymethyl)-4-methylpiperidine-1-carboxamide]",> 7.00,> 7.00
"N#Cc1ccc(CCNC(=O)[C@@H]2CCN2c2cc(N3CCN(CCO)CC3)nc(C(F)(F)F)n2)cc1 [Compound 224, (S)-N-(4-cyanophenethyl)-1-(6-(4-(2-hydroxyethyl)piperazin-1-yl)-2-(trifluoromethyl)pyrimidin-4-yl)azetidine-2-carboxamide]",6.00 to 7.00,> 7.00
"NCCNC(=O)CCCC1CCN(c2cc(N3CCC[C@H]3C(=O)NCCc3ccc(C(F)(F)F)cc3)nc(C(F)(F)F)n2)CC1 [Compound 90, (S)-1-(6-(4-(4-((2-aminoethyl)amino)-4-oxobutyl)piperidin-1-yl)-2-(trifluoromethyl)pyrimidin-4-yl)-N-(4-(trifluoromethyl)phenethyl)pyrrolidine-2-carboxamide hydrochloride]",> 7.00,> 7.00
"O=C(CCCC1CCN(c2cc(N3CCC[C@@H](C(=O)NCCc4ccc(C(F)(F)F)cc4)C3)nc(C(F)(F)F)n2)CC1)NCCS(=O)(=O)O [Compound 336, (R)-2-(4-(1-(2-(trifluoromethyl)-6-(3-((4-(trifluoromethyl)phenethyl)carbamoyl)-piperidin-1-yl)pyrimidin-4-yl)piperidin-4-yl)butanamido)ethanesulfonic acid]",6.00 to 7.00,> 7.00
"N#Cc1ccc(CCNC(=O)[C@@H]2CCCN(c3cc(N4CCC(CCN)CC4)nc(C(F)(F)F)n3)C2)cc1 [Compound 345, (R)-1-(6-(4-(2-aminoethyl)piperidin-1-yl)-2-(trifluoromethyl)pyrimidin-4-yl)-N-(4-cyanophenethyl)piperidine-3-carboxamide]",> 7.00,> 7.00
